Like-named read-outs stand apart in the source and are kept apart here.
Test system: cell lines from the Cancer Cell Line Encyclopedia (CCLE)
Assay: High-throughput cell viability assay, CCLE cell line panel (n = 356)
Assay type: cell-based, human
Conditions: Homo sapiens
Method: Cell lines were partitioned into sensitive and insensitive groups based on compound potency (IC50). […] All other cell lines were obtained from ATCC (American Type Culture Collection), DSMZ (Deutsche Sammlung von Mikroorganismen und Zellkulturen), and HSRRB (Health Science Research Resources Bank) and cultured in RPMI or Dulbecco's modified Eagle's medium plus 10% FBS (Invitrogen, Carlsbad, CA) at 37°C, 5% CO2.

SMILES: COc1cc2c(cc1OC(C)C)[C@H](c1ccc(Cl)cc1)N(c1ccc(N(C)C[C@H]3CC[C@H](N4CCNC(=O)C4)CC3)cc1)C(=O)C2 [NVP-CFC218]
- IC50 (A 172, read-out: NVP- CFC218 IC50 (µM), cell line A172, central_nervous_system, TP53 WT): > 8 µM
- IC50 (A204, A-204, TP53 WT): 2.18 µM
- IC50 (A2780, A2780, TP53 WT): 2.24 µM
- IC50 (A-375, A-375, TP53 WT): 2.65 µM
- IC50 (ACHN, TP53 WT): 2.03 µM
- IC50 (AMO1, AMO-1, TP53 WT): 2.01 µM
- IC50 (AN3-CA, AN3 CA, TP53 MUT): > 8 µM
- IC50 (ASPC1, AsPC-1, TP53 MUT): > 8 µM
- IC50 (AU565, AU565, TP53 MUT): > 8 µM
- IC50 (BCPAP, B-CPAP, TP53 MUT): > 8 µM
- IC50 (BDCM, TP53 WT): 0.7 µM
- IC50 (BEN, TP53 MUT): > 8 µM
- IC50 (BFTC-905, BFTC-905, TP53 MUT): > 8 µM
- IC50 (BFTC-909, BFTC-909, TP53 MUT): > 8 µM
- IC50 (BHY, TP53 MUT): > 8 µM
- IC50 (BICR 6, TP53 MUT): > 8 µM
- IC50 (BL-41, BL-41, TP53 MUT): > 8 µM
- IC50 (BL-70, TP53 MUT): > 8 µM
- IC50 (BT-20, BT-20, TP53 MUT): > 8 µM
- IC50 (BT-474, BT-474, TP53 MUT): > 8 µM
- IC50 (BT-549, BT-549, TP53 MUT): > 8 µM
- IC50 (BXPC-3, BxPC-3, TP53 MUT): > 8 µM
- IC50 (CAKI-2, Caki-2, TP53 WT): 3.63 µM
- IC50 (CAL-12T, TP53 MUT): > 8 µM
- IC50 (CAL-78, TP53 MUT): > 8 µM
- IC50 (CAL-85-1, read-out: NVP- CFC218 IC50 (µM), cell line CAL-85-1, breast, TP53 MUT): > 8 µM
- IC50 (CAMA-1, read-out: NVP- CFC218 IC50 (µM), cell line CAMA-1, breast, TP53 MUT): > 8 µM
- IC50 (CAPAN-1, Capan-1, TP53 MUT): > 8 µM
- IC50 (CAS-1, TP53 MUT): > 8 µM
- IC50 (CFPAC-1, CFPAC-1, TP53 MUT): > 8 µM
- IC50 (CHL-1, CHL-1, TP53 MUT): > 8 µM
- IC50 (CHP-212, CHP-212, TP53 WT): 1.36 µM
- IC50 (CMK-11-5, CMK-11-5, TP53 MUT): > 8 µM
- IC50 (COLO 205, COLO 205, TP53 MUT): > 8 µM
- IC50 (COLO 792, TP53 WT): > 8 µM
- IC50 (COLO-679, COLO-679, TP53 WT): 0.91 µM
- IC50 (COLO-741, COLO 741, TP53 MUT): > 8 µM
- IC50 (COR-L23, COR-L23, TP53 WT): > 8 µM
- IC50 (COV318, COV318, TP53 MUT): > 8 µM
- IC50 (COV362, COV362, TP53 MUT): > 8 µM
- IC50 (COV434, COV434, TP53 WT): 5.89 µM
- IC50 (COV504, read-out: NVP- CFC218 IC50 (µM), cell line COV504, ovary, TP53 MUT): > 8 µM
- IC50 (COV644, TP53 WT): > 8 µM
- IC50 (Calu-3, Calu-3, TP53 MUT): > 8 µM
- IC50 (Calu-6, Calu-6, TP53 MUT): > 8 µM
- IC50 (Caov-3, Caov-3, TP53 MUT): > 8 µM
- IC50 (Capan-2, read-out: NVP- CFC218 IC50 (µM), cell line Capan-2, pancreas, TP53 WT): > 8 µM
- IC50 (ChaGo-K-1, ChaGo-K-1, TP53 MUT): > 8 µM
- IC50 (DB, TP53 MUT): > 8 µM
- IC50 (DBTRG-05MG, TP53 WT): 4 µM
- IC50 (DEL, TP53 MUT): > 8 µM
- IC50 (DK-MG, TP53 WT): 2.32 µM
- IC50 (DMS-53, DMS 53, TP53 MUT): > 8 µM
- IC50 (DMS-114, DMS 114, TP53 MUT): > 8 µM
- IC50 (DOHH-2, DOHH-2, TP53 WT): 1.18 µM
- IC50 (DU-145, DU 145, TP53 MUT): > 8 µM
- IC50 (Daoy, TP53 MUT): > 8 µM
- IC50 (Detroit 562, Detroit 562, TP53 MUT): > 8 µM
- IC50 (EB2, TP53 MUT): > 8 µM
- IC50 (EBC-1, EBC-1, TP53 MUT): > 8 µM
- IC50 (EFE-184, EFE-184, TP53 MUT): > 8 µM
- IC50 (EFM-19, EFM-19, TP53 MUT): > 8 µM
- IC50 (EFO-21, EFO-21, TP53 MUT): > 8 µM
- IC50 (EM-2, TP53 MUT): > 8 µM
- IC50 (ESS-1, read-out: NVP- CFC218 IC50 (µM), cell line ESS-1, endometrium, TP53 MUT): > 8 µM
- IC50 (FU-OV-1, TP53 MUT): > 8 µM
- IC50 (FaDu, TP53 MUT): > 8 µM
- IC50 (Fu97, FU97, TP53 MUT): > 8 µM
- IC50 (G-361, G-361, TP53 WT): 3.16 µM
- IC50 (G-401, G-401, TP53 WT): 1.6 µM
- IC50 (G-402, G-402, TP53 WT): 2.31 µM
- IC50 (GCIY, TP53 MUT): > 8 µM
- IC50 (GI-1, TP53 MUT): > 8 µM
- IC50 (GMS-10, GMS-10, TP53 MUT): > 8 µM
- IC50 (GP2d, TP53 WT): 3.45 µM
- IC50 (Granta-519, GRANTA-519, TP53 WT): 3.38 µM
- IC50 (H4, TP53 WT): 2.84 µM
- IC50 (HARA, TP53 MUT): > 8 µM
- IC50 (HCC15, HCC-15, TP53 MUT): > 8 µM
- IC50 (HCC70, HCC70, TP53 MUT): > 8 µM
- IC50 (HCC78, HCC-78, TP53 MUT): > 8 µM
- IC50 (HCC1500, HCC1500, TP53 WT): 4.89 µM
- IC50 (HCC1806, HCC1806, TP53 MUT): > 8 µM
- IC50 (HCC1954, HCC1954, TP53 MUT): > 8 µM
- IC50 (HCC4006, HCC4006, TP53 MUT): > 8 µM

From PMC4468608, “A distinct p53 target gene set predicts for response to the selective p53–HDM2 inhibitor NVP-CGM097” (eLife, 2015)
